According to ChEMBL document CHEMBL6121006, “Marine natural product-inspired discovery of novel BRD4 inhibitors with anti-inflammatory activity” (Eur J Med Chem, 2025):
Calls of active or inactive are those of the source. No cut-off for these calls is given here.

Experiments:
[1] = target: T1, Bromodomain-containing protein 4 (Homo sapiens, UniProt O60885); assay: Inhibition of human recombinant BRD4 BD2 (349 to 460 residues) extracted from Escherichia coli BL21 (DE3) incubated for 2 hrs by TR-FRET assay
RAW264.7 = assay: Cytotoxicity against mouse RAW264.7 cells at 20 uM measured after 24 hrs by CCK8 method; type: functional, cell-based
Mus musculus [2] = assay: Antiinflammatory activity against C57BL/6 mouse acute inflammation model assessed as inhibition of LPS-induced IL-6 level at 50 to 100 mg/kg, po pre-administered for 2 hrs followed by LPS stimulation for 6 hrs by ELISA method; type: functional, organism-based; conditions: dose 50-100 mg/kg, time 8.0 hrs
THP-1 [3] = assay: Anti-inflammatory activity in human THP-1 cells assessed as inhibition of LPS-induced IL-6 expression preincubated with compound for 2 hrs followed by LPS stimulation and measured after 6 hrs by RT-qPCR analysis; type: functional, cell-based; conditions: dose 2.5-20 µM, time 8.0 hrs
[4] = Toxicity in C57BL/6 mouse effect on liver at 100 mg/kg, po measured after 24 hrs; type: organism-based; conditions: in vivo
THP-1 [5] = assay: Anti-inflammatory activity in human THP-1 cells assessed as inhibition of LPS-induced TNF-alpha expression preincubated with compound for 2 hrs followed by LPS stimulation and measured after 6 hrs by RT-qPCR analysis; type: functional, cell-based; conditions: dose 2.5-20 µM, time 8.0 hrs
Mus musculus [6] = assay: Antiinflammatory activity against C57BL/6 mouse acute inflammation model assessed as reduction in LPS induced lung destruction at 50 to 100 mg/kg, po pre-administered for 2 hrs followed by LPS stimulation for 6 hrs; type: functional, organism-based; conditions: dose 50-100 mg/kg, time 8.0 hrs
[7] = target: T1, Bromodomain-containing protein 4; assay: Inhibition of human recombinant BRD4 BD2 (349 to 460 residues) extracted from Escherichia coli BL21 (DE3) at 10 uM incubated for 2 hrs by TR-FRET assay relative to control

IC50 [1]: 120 nM | inhibition [7]: 89%
SMILES: COc1ccc(/C=C/c2nc3cc(OC)cc(OC)c3c(=O)[nH]2)cc1
Activity (RAW264.7): inactive | Activity (Mus musculus [2]): Active | Activity (THP-1 [3]): Dose-dependent-effect | Activity [4]: Non-toxic | Activity (THP-1 [5]): Dose-dependent-effect | Activity (Mus musculus [6]): Active
